Literature values as cited in publication PMC10182713 (South African Journal of Botany, 2023).

Test system: multidrug-resistant TB
Settings: ref Favela-Hernández et al. (2012); cited from earlier work

Q: Which “Activity against multidrug-resistant TB in words” value does the source give for COc1cc(O)c2c(=O)c(OC)c(-c3ccc(O)cc3)oc2c1OC [5,4-dihydroxy 3,7,8-trimethoxyflavone] here?
A: active

Q: With COc1cc(-c2oc3c(OC)c(OC)cc(O)c3c(=O)c2OC)ccc1O [5,4-dihydroxy-3,7,8,3-tetramethoxyflavone] as the molecule, how does the “Activity against multidrug-resistant TB in words” value read?
A: active
